This is an account of results in patent US8741886B2, “Baclofen and acamprosate based therapy of neurological disorders” (Pharnext, priority 2011, dated 2014).

The test system of series [1] is rat primary cortical cells. The series is described as follows: Toxicity of human Aβ1-42 peptide on primary cortical neuron cells: LDH release. It counts as cell-based. The conditions noted are these: for protection of neurons from amyloid injury: 1 h pre-treatment, Estradiol 150 nM or BDNF 50 ng/mL. As to the method:
Rat cortical neurons were cultured as described by Singer et al. (47). Briefly pregnant female rats of 15 days gestation were killed by cervical dislocation (Rats Wistar) and the foetuses were removed from the uterus. The cortex was removed and placed in ice-cold medium of Leibovitz (L15) containing 2% of Penicillin 10.000 U/ml and Streptomycin 10 mg/ml and 1% of bovine serum albumin (BSA). Cortexes were dissociated by trypsin for 20 min at 37° C. (0.05%). The reaction was stopped by the addition of Dulbecco's modified Eagle's medium (DMEM) containing DNasel grade II and 10% of foetal calf serum (FCS). Cells were then mechanically dissociated by 3 serial passages through a 10 ml pipette and centrifuged at 515×g for 10 min at +4° C. The supernatant was discarded and the pellet of cells was re-suspended in a defined culture medium consisting of Neurobasal supplemented with B27 (2%), L-glutamine (0.2 mM), 2% of PS solution and 10 ng/ml of BDNF. Viable cells were counted in a Neubauer cytometer using the trypan blue exclusion test. The cells were seeded at a density of 30 000 cells/well in 96 well-plates (wells were pre-coated with poly-L-lysine (10 μg/ml)) and were cultured at +37° C. in a humidified air (95%)/CO2 (5%) atmosphere.
Briefly, Aβ1-42 peptide was reconstituted in define culture medium at 40 μM (mother solution) and was slowly shaken at +37° C. for 3 days in dark. The control medium was prepared in the same conditions.
After 10 days of neuron culture, test compounds were solved in culture medium (+0.1% DMSO) and then pre-incubated with neurons for 1 hour before the Aβ1-42 application (in a final volume per culture well of 100 μl). One hour after test compound(s) incubation, 100 μl of Aβ1-42 peptide was added to a final concentration of 10 μM diluted in presence of drug(s), in order to avoid further test compound(s) dilutions. Cortical neurons were intoxicated for 24 hours. Three separate cultures were performed per condition, 6 wells per condition.
BDNF (50 ng/ml) and Estradiol-β (150 nM) were used as positive control and reference compounds respectively. Three separate cultures will be performed per condition, 12 wells per condition.
Estradiol-β at 150 nM was used as a positive control (FIG. 4).
Estradiol-β was solved in culture medium and pre-incubated for 1 h before the amyloid-β1-42 application.
The following conditions were assessed: • CONTROL PLAQUE: 12 wells/condition • Negative Control: medium alone+0.1% DMSO • Intoxication: amyloid-β1-42 (10 μM) for 24 h • Reference compound: Estradiol (150 nM) 1 hr. • DRUG PLATE: 6 wells/condition • Negative Control: medium alone+0.1% DMSO • Intoxication: amyloid-β1-42 (10 μM) for 24 h • Test compound(s): test compound(s)—1 hr followed by amyloid-β1-42 (10 μM) for 24 h Lactate Dehydrogenase (LDH) Activity Assay
24 hours after intoxication, the supernatant was taken off and analyzed with Cytotoxicity Detection Kit (LDH, Roche Applied Science, ref: 11644793001, batch: 11800300). This colorimetric assay for the quantification of cell toxicity is based on the measurement of lactate dehydrogenase (LDH) activity released from the cytosol of dying cells into the supernatant.
Data were expressed in percentage of control conditions (no intoxication, no amyloid=100%) in order to express the amyloid injury. All values were expressed as mean+/−SEM (s.e.mean) of the 3 cultures (n=6 wells per condition). Statistic analyses were done on the different conditions (ONE-WAY ANOVA followed by the Dunnett's test when it was allowed, Statview software version 5.0).
For orientation: LDH in the medium is a marker of cell lysis.

For series [2], the system named is mice injected i.c.v. with Aβ25-35 peptide. The series is described as follows: Spontaneous alternation, Y-maze test, after i.c.v. Aβ25-35. It counts as in vivo. As to conditions: Acamprosate 32 μg/kg/day, Baclofen 480 μg/kg/day. The text has this:
The Y-maze is made of grey polyvinylchloride. Each arm is 40 cm long, 13 cm high, 3 cm wide at the bottom, 10 cm wide at the top, and converging at an equal angle. […] An alternation is defined as entries into all three arms on consecutive occasions.

As for `C[C@]12CC[C@@H]3c4ccc(O)cc4CC[C@H]3[C@@H]1CC[C@@H]2O` [Estradiol], in series [1], the “protection of neurons from amyloid injury” value is reported as −94%.

For `COc1cc2c(cc1OC)C(=O)C(CC1CCN(Cc3ccccc3)CC1)C2` (centres unmarked) [Donepezil], in series [2] (Donepezil 0.25 mg/kg/day), the “protection of percentage of alternation (Y-maze), low doses with Donepezil” value was 32%. Besides, in series [2] (drugs alone: Donepezil 0.25 mg/kg/day), the “effect on percentage of alternation (Y-maze), low doses (in words)” value is “no significant effect”.

Turning to `NCCCS(=O)(=O)O` [Homotaurine], the “prevention of Aβ1-42 intoxication by pre-treatment” value in series [1] (8 nM) turned out to be 99%.

B1: BDNF: BDNF (50 ng/ml) used as positive control for neuroprotection (protein, UniProt P23560 19-247, looked up)
Neurotrophic factor BDNF …: APMKEANIRGQGGLAYPGVRTHGTLESVNGPKAGSRGLTSLADTFEHVIEELLDEDQKVRPNEENNKDADLYTSRVMLSSQVPLEPPLLFLLEEYKNYLDAANMSMRVRRHSDPARRGELSVCDSISEWVTAADKKTAVDMSGGTVTVLEKVPVSKGQLKQYFYETKCNPMGYTKEGCRGIDKRHWNSQCRTTQSYVRALTMDSKKRIGWRFIRIDTSCVCTLTIKRGR
As to B1, the “protection of neurons from amyloid injury” value in series [1] is reported as −94%.
